Laboratory results as given in patent publication US6620828B2, “Thiazole compounds and pharmaceutical compositions for inhibiting protein kinases and methods for their use” (Agouron Pharmaceuticals, Inc., priority 1999, dated 2003).

What was measured:
Format in all cases: biochemical
[1] = biological target: T1, phosphorylated VEGF-R2Δ50 (FLVK-P) (Homo sapiens, UniProt P35968, DEL940-989/E990V); test: VEGF-R2 coupled spectrophotometric (FLVK-P) assay; details: read-out: VEGF % inhibition at 20 μM, 20 μM; combinatorial library compounds
T1 construct: VEGF-R2Δ50 contains residues 806-939 and 990-1171; made in house; host or cells: baculovirus/insect cells
Method in brief: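 Baculovirus-expressed human VEGF-R2Δ50 (residues 806-939/990-1171, E990V) was autophosphorylated with 3 mM ATP, 40 mM MgCl2 for 2 h at 4° C. ADP formation was coupled via PK/LDH to NADH oxidation, read at 340 nm, with 5.1 mM poly(E4Y1), 1 mM ATP, 25 mM MgCl2, Hepes pH 7.5. Ki came from activity across compound concentrations.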

FL-CHK1 = biological target: T2, FL-CHK1 (Homo sapiens, UniProt O14757); test: CHK1 assay; details: 20 μM; combinatorial library compounds
T2 construct: C-terminally His-tagged full-length human CHK1 (FL-CHK1); 6xHis (C); made in house; host or cells: baculovirus/insect cells
T2 sequence (O14757 1-476): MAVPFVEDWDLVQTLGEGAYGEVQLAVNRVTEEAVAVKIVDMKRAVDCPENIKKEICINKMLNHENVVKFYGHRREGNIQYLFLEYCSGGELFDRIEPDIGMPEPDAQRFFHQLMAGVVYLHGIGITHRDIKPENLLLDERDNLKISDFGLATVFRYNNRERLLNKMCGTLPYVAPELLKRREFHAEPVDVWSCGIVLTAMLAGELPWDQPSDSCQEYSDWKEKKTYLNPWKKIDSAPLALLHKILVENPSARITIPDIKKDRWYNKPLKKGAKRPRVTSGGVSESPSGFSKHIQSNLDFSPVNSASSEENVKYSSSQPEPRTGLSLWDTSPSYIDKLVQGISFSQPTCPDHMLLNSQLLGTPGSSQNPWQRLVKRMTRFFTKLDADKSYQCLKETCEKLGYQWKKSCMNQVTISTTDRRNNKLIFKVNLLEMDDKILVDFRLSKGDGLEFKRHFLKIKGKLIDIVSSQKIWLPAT
Method in brief: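 Full-length human CHK1 with C-terminal 6×His tag, made in baculovirus/insect cells, 10 nM, phosphorylating 0.125 mM Syntide-2 with 0.15 mM ATP in 50 mM Tris pH 7.5, 25 mM MgCl2, 400 mM NaCl. PK/LDH-coupled NADH oxidation read at 340 nm. Ki from initial rates over varied compound concentrations.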

CDK2/Cyclin A complex = CDK2/Cyclin A complex (Homo sapiens, UniProt P24941); test: CDK2/Cyclin A assay; details: 1.0 μM; combinatorial library compounds
Method in brief: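 Radiometric assay: 150 nM CDK2/cyclin A (insect-cell CDK2, truncated cyclin A) phosphorylates His-tagged Rb fragment (residues 386-928) with 25 μM ATP plus [32P]ATP, pH 7.4 HEPES, 2% DMSO, 30 °C for 20 min. Filter-captured product counted by phosphorimager; apparent Ki from competitive or tight-binding inhibition fits.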

CDK4/Cyclin D3 complex = biological target: T3, CDK4/Cyclin D3 complex (Homo sapiens, UniProt P11802); test: CDK4/Cyclin D assay; details: 1.0 μM; combinatorial library compounds
T3 construct: made in house; host or cells: insect cells co-infected with baculovirus vectors
Procedure: CDK4/Cyclin D Construct for Assay: A complex of human CDK4 and cyclin D3, or a complex of cyclin DI and a fusion protein of human CDK4 and glutathione-S-transferase (GST-CDK4), was purified using traditional biochemical chromatographic techniques from insect cells that had been co-infected with the corresponding baculovirus expression vectors.
CDK2/Cyclin A and CDK4/Cyclin D Assays
Cyclin-dependent kinase activity was measured by quantifying the enzyme-catalyzed, time-dependent incorporation of radioactive phosphate from [^32P]ATP into a recombinant fragment of the retinoblastoma protein. Unless noted otherwise, assays were performed in 96-well plates in a total volume of 50 μL, in the presence of 10 mM HEPES (N-[2-hydroxyethyl]piperazine-N′-[2-ethanesulfonic acid]) (pH 7.4), 10 mM MgCl2, 25 μM adenosine triphosphate (ATP), 1 mg/mL ovalbumin, 5 μg/mL leupeptin, 1 mM dithiothreitol, 10 mM β-glycerophosphate, 0.1 mM sodium vanadate, 1 mM sodium fluoride, 2.5 mM ethylene glycol-bis(β-aminoethyl ether)-N,N,N′N′-tetraacetic acid (EGTA), 2% (v/v) dimethylsulfoxide, and 0.03-0.2 μCi [^32P]ATP. The substrate (0.3-0.5 μg) was purified recombinant retinoblastoma protein fragment (Rb) (residues 386-928 of the native retinoblastoma protein; 62.3 kDa, containing the majority of the phosphorylation sites found in the native 106-kDa protein, as well as a tag of six histidine residues for ease of purification). Reactions were initiated with CDK2 (150 nM CDK2/Cyclin A complex) or CDK4 (50 nM CDK4/Cyclin D3 complex), incubated at 30° C., and terminated after 20 minutes by the addition of ethylenediaminetetraacetic acid EDTA) to 250 mM. The phosphorylated substrate was then captured on a nitrocellulose membrane using a 96-well filtration manifold, and unincorporated radioactivity was removed by repeated washing with 0.85% phosphoric acid. Radioactivity was quantified by exposing the dried nitrocellulose membranes to a phosphorimager. Apparent Ki values were measured by assaying enzyme activity in the presence of different compound concentrations and subtracting the background radioactivity measured in the absence of enzyme. The kinetic parameters (kcat, Km for ATP) were measured for each enzyme under the usual assay conditions by determining the dependence of initial rates on ATP concentration. The data were fit to an equation for competitive inhibition using Kaleidagraph (Synergy Software), or were fit to an equation for competitive tight-binding inhibition using the software KineTic (BioKin, Ltd.). Measured Ki values for known inhibitors against CDK4 and CDK2 agreed with published IC50 values. The specific activity of CDK4 was the same whether complexed to full-length cyclin D3 or the truncated Cyclin D3 construct; both complexes also yielded very similar Ki values for selected inhibitors.

T1 sequence (P35968 with tags, fused parts or gaps DEL940-989/E990V limits assumed): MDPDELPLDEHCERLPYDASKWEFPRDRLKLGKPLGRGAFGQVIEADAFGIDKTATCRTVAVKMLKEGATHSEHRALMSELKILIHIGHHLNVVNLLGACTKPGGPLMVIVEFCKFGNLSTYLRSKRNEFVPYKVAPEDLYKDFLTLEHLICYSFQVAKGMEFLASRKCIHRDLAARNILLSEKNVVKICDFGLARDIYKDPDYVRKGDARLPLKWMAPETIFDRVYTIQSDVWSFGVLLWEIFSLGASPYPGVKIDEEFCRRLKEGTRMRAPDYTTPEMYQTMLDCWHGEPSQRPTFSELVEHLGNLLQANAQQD
T3 sequence (P11802 whole entry): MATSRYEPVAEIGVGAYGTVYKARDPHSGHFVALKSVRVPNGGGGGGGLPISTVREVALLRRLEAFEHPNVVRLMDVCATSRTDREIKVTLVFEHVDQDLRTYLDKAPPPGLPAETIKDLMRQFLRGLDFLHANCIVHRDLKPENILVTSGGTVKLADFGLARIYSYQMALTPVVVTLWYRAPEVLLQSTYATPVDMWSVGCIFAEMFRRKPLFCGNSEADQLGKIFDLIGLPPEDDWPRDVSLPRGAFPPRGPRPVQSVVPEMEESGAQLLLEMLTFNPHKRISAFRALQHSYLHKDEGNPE
T3 sequence (P30281 whole entry partner): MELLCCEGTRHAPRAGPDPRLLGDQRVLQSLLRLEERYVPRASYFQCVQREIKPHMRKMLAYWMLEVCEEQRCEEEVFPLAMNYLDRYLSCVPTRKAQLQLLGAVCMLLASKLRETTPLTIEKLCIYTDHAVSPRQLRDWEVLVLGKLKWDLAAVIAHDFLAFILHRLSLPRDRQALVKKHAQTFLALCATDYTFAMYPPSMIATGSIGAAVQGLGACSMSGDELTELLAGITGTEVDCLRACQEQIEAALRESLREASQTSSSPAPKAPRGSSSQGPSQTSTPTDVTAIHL

Compound	inhibition at 20 µM [1] [%]	inhibition at 20 µM (FL-CHK1) [%]	inhibition at 1 µM (CDK2/Cyclin A complex) [%]	inhibition at 1 µM (CDK4/Cyclin D3 complex) [%]
Nc1nc(Nc2ccc(S(N)(=O)=O)cc2)sc1-c1nc(-c2cccc(OC(=O)c3ccccc3)c2)cs1	43	6.8	37.2	-1.9
Nc1nc(Nc2ccc(S(N)(=O)=O)cc2)sc1-c1nc(-c2ccccc2OC(=O)c2ccccc2)cs1	9	-1.6	29	2.3
CCc1cc2c(cc1-c1csc(-c3sc(Nc4ccc(S(N)(=O)=O)cc4)nc3N)n1)C(C)(C)CCC2(C)C	-2	1.3	14.1	-3.5
COc1ccc2nc(-c3ccccc3)c(-c3csc(-c4sc(Nc5ccc(S(N)(=O)=O)cc5)nc4N)n3)cc2c1	3	9.7	61.4	53.4
CC(C)c1ccc(Nc2nc(N)c(-c3nc(-c4cc(Br)c(Cl)s4)cs3)s2)cc1	25	9.2	26	84.7
COc1cccc(-c2csc(-c3sc(Nc4ccc(C(C)C)cc4)nc3N)n2)c1	10	3.8	16	49.3
CCOC(=O)c1ccccc1-c1csc(-c2sc(Nc3ccc(C(C)C)cc3)nc2N)n1	26	26	29.2	81.6
Cc1c(C)c(C)c(-c2csc(-c3sc(Nc4ccc(C(C)C)cc4)nc3N)n2)c(C)c1C	59	34.9	39.9	84.7
CC(C)c1ccc(Nc2nc(N)c(-c3nc(-c4cc(-c5ccccc5)no4)cs3)s2)cc1	13	-4.7	2.4	50.4
Cc1c(F)cc(-c2csc(-c3sc(Nc4ccc(C(C)C)cc4)nc3N)n2)cc1Cl	18	22.8	28.2	88.6
CC(C)c1ccc(Nc2nc(N)c(-c3nc(-c4cc(-c5ccc(Cl)c(Cl)c5)no4)cs3)s2)cc1	-5	-9	18.5	-26.5
CCCCCc1ccc(-c2csc(-c3sc(Nc4ccc(C(C)C)cc4)nc3N)n2)cc1	-14	0.7	3.6	10.3
CC(=O)Oc1ccccc1-c1csc(-c2sc(Nc3ccc(C(C)C)cc3)nc2N)n1	14	-12.8	6.6	44.3

The remaining lines, values ahead:

inhibition at 20 µM [1] [%]	inhibition at 20 µM (FL-CHK1) [%]	inhibition at 1 µM (CDK2/Cyclin A complex) [%]	inhibition at 1 µM (CDK4/Cyclin D3 complex) [%]	Compound
12	7.8	25.5	-8.9	Nc1nc(Nc2ccc(S(N)(=O)=O)cc2)sc1-c1nc(-c2ccc3ccccc3c2)cs1
34	26.6	68.2	59.6	Cc1cc(-c2csc(-c3sc(Nc4ccc(S(N)(=O)=O)cc4)nc3N)n2)cs1
38	17.5	12.4	-5.3	Nc1nc(Nc2ccc(S(N)(=O)=O)cc2)sc1-c1nc(-c2ccc(F)c(F)c2)cs1
30	10.8	17.8	-28.6	Nc1nc(Nc2ccc(S(N)(=O)=O)cc2)sc1-c1nc(C2C=C([N+](=O)[O-])C=CC2)cs1 (centres unmarked)
9	11.7	1.3	-3.1	Nc1nc(Nc2ccc(S(N)(=O)=O)cc2)sc1-c1nc(-c2ccc(Cl)c(Cl)c2)cs1
25	13.4	40.7	46	Cc1cc(-c2csc(-c3sc(Nc4ccc(S(N)(=O)=O)cc4)nc3N)n2)cc(C)c1O
11	19.8	66.8	58	Nc1nc(Nc2ccc(S(N)(=O)=O)cc2)sc1-c1nc(-c2c(Cl)c(Cl)nc(Cl)c2Cl)cs1
50	0.2	19.6	-13.5	Cc1ccc(-c2csc(-c3sc(Nc4ccc(S(N)(=O)=O)cc4)nc3N)n2)c(C)c1
11	11.3	51.6	65	Nc1nc(Nc2ccc(S(N)(=O)=O)cc2)sc1-c1nc(-c2ccc(CC(=O)O)s2)cs1
29	25.6	69.5	62.5	COc1cc(OC)c(-c2csc(-c3sc(Nc4ccc(S(N)(=O)=O)cc4)nc3N)n2)c(O)c1Cl
18	18.3	45.7	57.5	Nc1nc(Nc2ccc(S(N)(=O)=O)cc2)sc1-c1nc(-c2ccc3oc4ccccc4c3c2)cs1
-2	13.1	35.9	31.8	CC1(C)CCC(C)(C)c2cc(-c3csc(-c4sc(Nc5ccc(S(N)(=O)=O)cc5)nc4N)n3)ccc21
2	4.2	4.5	-3.6	Nc1nc(Nc2ccc(S(N)(=O)=O)cc2)sc1-c1nc(-c2ccc(C(F)(F)F)cc2)cs1
7	15.3	56.6	42.2	Nc1nc(Nc2ccc(S(N)(=O)=O)cc2)sc1-c1nc(-c2ccc3c(c2)CCC(=O)N3)cs1
3	5.6	9.2	-0.3	Cc1c(-c2csc(-c3sc(Nc4ccc(S(N)(=O)=O)cc4)nc3N)n2)sc2ccccc12
-9	17.5	25	17	CC(C)(C)c1cc(-c2csc(-c3sc(Nc4ccc(S(N)(=O)=O)cc4)nc3N)n2)cc(C(C)(C)C)c1O
